# Assay results taken from patent publication US20250270209A1 (INTERLINE THERAPEUTICS, INC., priority 2022, published 2025).
# Legend:
# [1] = biological target: LRRK2 wild type enzyme (Homo sapiens, UniProt Q5S007); experiment: Biochemical Assay: LRRK2 TR-FRET (LanthaScreen) kinase assay with LRRKtide substrate; details: LRRK2 Inhibition, Table 8
# Protocol: 10 mM compound solution was prepared in DMSO. An 11-point, 3-fold dilution was performed, with highest concentration at 10 μM. A 10 mM compound DMSO solution was added to Labcyte LDV plate and the compound concentration of source plate was 10 mM. The 1st compound concentration of Inter plate(Labcyte 384 well PP plate) was 4.938×10^−1 mM which was prepared by transferring 1.5 μL of 10 mM compound from source plate to 28.9 μL DMSO. The 2nd compound concentration of Inter plate was 1.829×10^−2 mM which was prepared by transferring 60 nL of 10 mM compound from source plate to 32.7 μL DMSO. The 3rd compound concentration of Inter plate was 6.774×10^−4 mM which was prepared by transferring 2.5 nL of 10 mM compound from source plate to 36.9 μL DMSO. 100 nL of reference compound was dispensed in column 1 for low control wells and 100 nL of DMSO in column 24 for high control wells. Compounds were dispensed to column 2 to 23 of assay plate and backfilled with DMSO to a total volume of 100 nL.
# A 2X LRRK2 enzyme solution (final concentration 3 nM) was prepared in assay buffer (Tris-HCl pH8.0:50 mM, MgCl2: 5 mM, EDTA: 1 mM, Brij-35:0.01%, 2 mM DTT). A 2× substrate solution was prepared: LRRK2 tide substrate (final concentration 400 nM) and ATP (final concentration 25 μM) in assay buffer. 5 μL 2× LRRK2 enzyme solution was dispensed to each well in assay plate by Multidrop. Assay plate was spun at 1,000 rpm for 1 min and incubated for 15 min at 23° C. 5 μL 2× ATP/LRRKtide solution was dispensed to each well in assay plate by Multidrop. Assay plate was spun at 1,000 rpm for 1 min and incubated for 120 min at 23° C.
# (§1) A 2× detection solution was prepared: Tb-pERM (pLRRKtide) antibody (final concentration 0.25 nM) and EDTA (final concentration 10 mM) in TR-FRET dilution buffer. 10 μL 2× detection solution was dispensed to each well in assay plate to stop kinase reaction by Multidrop. Assay plate was spun at 1,000 rpm for 1 min and incubate for 30 min at 23° C. Assay plate was then read on Envision configured for LanthaScreen® TR-FRET. pS935 LRRK2 Cell Assay
# [2] = biological target: T1, wild type LRRK2 overexpressed in recombinant HEK-293T cells (Homo sapiens, UniProt Q5S007); experiment: pS935 LRRK2 Cell Assay (HTRF, phospho-LRRK2 Ser935); type: cell-based; details: LRRK2 Inhibition, Table 8, 2 hours compound incubation
# T1 construct: host or cells: HEK293T (transient transfection with pCMV-LRRK2 WT plasmid)
# Protocol: as §1
# The following protocol describes an in-vitro method for measuring phosphorylation at Ser935 on wild type LRRK2 overexpressed in recombinant HEK-293T cells. The method is based on HTRF technology, which combines Fluorescence Resonance Energy Transfer (FRET) with Time-Resolved measurement (TR). Phospho-LRRK2 (Ser935) is detected in a sandwich assay format using two different specific antibodies, one labelled with Eu3+-Cryptate (donor) and the second with d2(acceptor).When the fluorophores are in close proximity, excitation of the donor with a light source (flash lamp) stimulates FRET to the acceptor, which in turn fluoresces at a specific wavelength (665 nm). The fluorescence emission at 615 nm from the donor is also measured to allow ratiometric reduction of data. The specific signal is proportional to phospho-LRRK2 (Ser935).
# Plasmid transient transfection: DMEM medium, FBS, DPBS, Trans-IT, OPTI-MEM reagents were allowed to warm to room temperature. HEK293T cells were cultured in DMEM +10% FBS complete medium in T150 flasks till around 80% confluency before transfection. Then cells were washed with 10 mL PBS and detached with 3 mL 0.25% typinsin. 30×10E6 HEK293T cells were seeded in DMEM +10% FBS complete medium to a 15 cm dish.
# DNA, TransIT-LT1, OPTI-MEM complex were prepared: […] OPTI-MEM was added to a 15 mL cone tube, then […] plasmid was added to OPTI-MEM and mixed, followed by addition of 60 μL TransIT-LT1 to the plasmid OPTI-MEM mixture and mixing. The resulting mixture was incubated for 15 minutes.
# The above plasmid, DNA and OPTI-MEM mixture was added dropwise to the 15 cm dish, ensuring the drops were evenly distributed. The culture dish was gently rocked back and forth and from left to right to evenly distribute the complex. The tranfected dish was incubated for 24 hours at 37° C., and 5% CO2.
# Transfected HEK293T was collected in the 15 cm dish. Media was aspirated from tissue culture dish, and washed by dispensing 10 mL 1× DPBS into 15 cm dish. 1× DPBS was aspirated and 3 mL trypsin was dispensed to 15 cm dish. The dish was incubated with trypsin at room temperature for 3 min until the cells were detached. 10 mL of DMEM +10% FBS medium were added to 15 cm dish and triturated to ensure homogenous cell suspensions.
# Homogenous cell suspensions were transferred to a 50 mL tube, and centrifuged for 5 minutes at 1,000 rmp/min. The supernatant was aspirated and resuspended with 20 mL complete medium. 1 mL of cell suspension was transferred for cell counting. The cell suspension was diluted to 2× 10E5 cells/ml. 50 μL cell suspensions were added to a 384-well plate. The plate was quick spun at 800 rpm for 1 minute, then incubate overnight at 37° C., 5% CO2.
# Compound dispensing: compound was diluted (10 mM DMSO stock solution) and added to assay plate (top concentration: 10 μM, 3 fold serial dilution, 9 doses) with duplicates by Tecan liquid handler. The DMSO concentration of each well was normalized to 0.2%. Plates were quick spun at 1,000 rpm for 1 minute. Plates were incubated at 37° C., 5% CO2 for 2 hours.
# 1× lysis buffer solution supplemented with blocking reagent was prepared (e.g. 1 mL lysis buffer 4X+3 mL water+40 μL stock blocking reagent 100X). Antibodies working solution was prepared by diluting 40-fold d2 and Cryptate antibodies with detection buffer(e.g. 1520 μL detection buffer+40 μL d2-antibody stock solution+[…] Cryptate-antibody stock solution).
# After 2 hours incubation, cell plates were taken out from the incubator. […]
# Sequence of LRRK2 wild type enzyme (Q5S007 whole entry): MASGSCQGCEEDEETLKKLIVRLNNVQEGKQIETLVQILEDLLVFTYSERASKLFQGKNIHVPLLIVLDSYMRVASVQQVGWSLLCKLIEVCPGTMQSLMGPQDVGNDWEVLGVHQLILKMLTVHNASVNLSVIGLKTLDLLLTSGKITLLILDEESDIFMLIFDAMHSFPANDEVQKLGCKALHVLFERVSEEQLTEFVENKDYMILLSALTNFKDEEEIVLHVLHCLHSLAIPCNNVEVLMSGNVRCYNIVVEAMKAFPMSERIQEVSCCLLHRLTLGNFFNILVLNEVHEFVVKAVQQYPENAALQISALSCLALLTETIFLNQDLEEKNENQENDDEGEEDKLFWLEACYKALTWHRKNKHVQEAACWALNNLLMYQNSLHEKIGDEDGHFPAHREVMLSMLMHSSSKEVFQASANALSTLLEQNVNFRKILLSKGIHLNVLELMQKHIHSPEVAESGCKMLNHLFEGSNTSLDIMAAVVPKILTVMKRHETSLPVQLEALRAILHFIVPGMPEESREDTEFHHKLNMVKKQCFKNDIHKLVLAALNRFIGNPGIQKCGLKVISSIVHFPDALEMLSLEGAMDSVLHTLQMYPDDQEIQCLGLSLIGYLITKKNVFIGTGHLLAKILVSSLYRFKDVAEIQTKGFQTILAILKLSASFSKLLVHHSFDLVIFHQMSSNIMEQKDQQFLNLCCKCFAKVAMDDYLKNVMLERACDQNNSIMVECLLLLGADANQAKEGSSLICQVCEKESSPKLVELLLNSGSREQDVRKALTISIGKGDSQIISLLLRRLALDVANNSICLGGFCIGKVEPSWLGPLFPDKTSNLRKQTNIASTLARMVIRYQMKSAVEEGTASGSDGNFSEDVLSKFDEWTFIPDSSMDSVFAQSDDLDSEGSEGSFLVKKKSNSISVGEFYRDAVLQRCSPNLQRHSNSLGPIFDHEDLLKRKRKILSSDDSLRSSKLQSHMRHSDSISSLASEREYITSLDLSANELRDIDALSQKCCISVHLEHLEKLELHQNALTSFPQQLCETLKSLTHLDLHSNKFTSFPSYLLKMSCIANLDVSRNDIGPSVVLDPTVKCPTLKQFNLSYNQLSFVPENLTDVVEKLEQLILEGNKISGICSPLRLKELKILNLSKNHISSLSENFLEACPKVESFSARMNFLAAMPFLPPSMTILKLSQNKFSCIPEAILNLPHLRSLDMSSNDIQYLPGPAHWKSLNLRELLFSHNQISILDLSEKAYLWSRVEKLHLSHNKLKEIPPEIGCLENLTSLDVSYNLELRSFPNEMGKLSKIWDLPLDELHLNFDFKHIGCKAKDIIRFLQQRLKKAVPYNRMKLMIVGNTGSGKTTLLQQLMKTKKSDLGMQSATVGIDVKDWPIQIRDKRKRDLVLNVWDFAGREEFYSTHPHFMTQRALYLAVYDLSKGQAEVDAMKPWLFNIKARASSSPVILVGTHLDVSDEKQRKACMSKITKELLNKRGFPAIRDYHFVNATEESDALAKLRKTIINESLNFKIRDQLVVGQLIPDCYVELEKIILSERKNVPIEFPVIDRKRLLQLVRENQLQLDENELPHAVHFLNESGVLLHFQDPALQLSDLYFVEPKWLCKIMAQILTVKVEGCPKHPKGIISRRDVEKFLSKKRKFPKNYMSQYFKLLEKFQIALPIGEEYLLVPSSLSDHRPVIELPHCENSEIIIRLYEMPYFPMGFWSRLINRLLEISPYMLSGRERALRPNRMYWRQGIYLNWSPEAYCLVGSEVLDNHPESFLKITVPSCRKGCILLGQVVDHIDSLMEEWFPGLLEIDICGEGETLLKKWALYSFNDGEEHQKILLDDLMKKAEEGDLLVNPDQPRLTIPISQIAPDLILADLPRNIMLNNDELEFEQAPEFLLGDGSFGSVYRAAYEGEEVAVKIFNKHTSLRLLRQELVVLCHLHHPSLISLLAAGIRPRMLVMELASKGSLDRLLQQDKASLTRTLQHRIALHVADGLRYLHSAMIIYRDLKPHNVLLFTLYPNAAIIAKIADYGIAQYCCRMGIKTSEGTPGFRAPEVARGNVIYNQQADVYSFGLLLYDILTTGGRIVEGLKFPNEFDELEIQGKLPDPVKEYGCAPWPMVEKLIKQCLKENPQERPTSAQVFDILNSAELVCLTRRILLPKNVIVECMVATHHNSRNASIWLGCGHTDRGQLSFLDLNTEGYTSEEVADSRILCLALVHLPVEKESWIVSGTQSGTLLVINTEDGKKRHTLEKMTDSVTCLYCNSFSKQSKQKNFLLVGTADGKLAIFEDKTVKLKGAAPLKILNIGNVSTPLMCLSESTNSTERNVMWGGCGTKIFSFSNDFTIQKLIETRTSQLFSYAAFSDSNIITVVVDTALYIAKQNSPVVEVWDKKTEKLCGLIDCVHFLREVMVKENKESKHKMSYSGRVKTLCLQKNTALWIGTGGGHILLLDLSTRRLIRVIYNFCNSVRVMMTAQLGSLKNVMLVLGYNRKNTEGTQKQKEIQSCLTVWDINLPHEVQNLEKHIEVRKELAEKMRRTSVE
# T1 sequence (Q5S007 whole entry): as above
Compound,IC50 [1],IC50 [2]
"C[C@@H]1C[C@H](n2c(CC(=O)Nc3ccno3)nc3cnc4ccc(Cl)cc4c32)CCO1 [Compound 351, N-5-isoxazolyl{3-[(2R,4R)-2-methyltetrahydro-2H-pyran-4-yl]-12-chloro-3,5,8-triazatricyclo[7.4.0.0^2,6]trideca-1(9),2(6),4,7,10,12-hexaen-4-yl}acetamide]",0.597 nM,10.4 nM
"COc1cc(F)ncc1NC(=O)Cc1nc2cnc3ccc(C#N)cc3c2n1[C@@H]1CCO[C@H](C)C1 [Compound 230, N-(6-fluoro-4-methoxy-3-pyridyl){3-[(2R,4R)-2-methyltetrahydro-2H-pyran-4-yl]-12-cyano-3,5,8-triazatricyclo[7.4.0.0^2,6]trideca-1,4,6,8,10,12-hexaen-4-yl}acetamide]",0.442 nM,4.9 nM
"C[C@@H]1C[C@H](n2c(CC(=O)NC3COC3)nc3cnc4ccc(Cl)cc4c32)CCO1 [Compound 141, 2-{8-chloro-1-[(2R,4R)-2-methyloxan-4-yl]-1H-imidazo[4,5-c]quinolin-2-yl}-N-(oxetan-3-yl)acetamide]",0.53 nM,18.7 nM
"CC(C(=O)NCC1CC1)c1nc2cnc3ccc(C#N)cc3c2n1[C@@H]1CCO[C@H](C)C1 (stereo partly drawn) [Compound 369, N-cyclopropylmethyl2-{3-[(2R,4R)-2-methyltetrahydro-2H-pyran-4-yl]-12-cyano-3,5,8-triazatricyclo[7.4.0.0^2,6]trideca-1(13),2(6),4,7,9,11-hexaen-4-yl}propionamide]",13.8 nM,801 nM
"C[C@@H]1C[C@H](n2c(CC(=O)Nc3cnccn3)nc3cnc4ccc(Cl)cc4c32)CCO1 [Compound 371, N-2-pyrazinyl{3-[(2R,4R)-2-methyltetrahydro-2H-pyran-4-yl]-12-chloro-3,5,8-triazatricyclo[7.4.0.0^2,6]trideca-1(9),2(6),4,7,10,12-hexaen-4-yl}acetamide]",1.13 nM,5 nM
"C[C@@H]1C[C@H](n2c(CC(=O)NC3CC34CC4)nc3cnc4ccc(C#N)cc4c32)CCO1 (stereo partly drawn) [Compound 249, N-1-spiro[2.2]pentyl{3-[(2R,4R)-2-methyltetrahydro-2H-pyran-4-yl]-12-cyano-3,5,8-triazatricyclo[7.4.0.0^2,6]trideca-1(9),2(6),4,7,10,12-hexaen-4-yl}acetamide]",0.691 nM,17.4 nM
"COCCNC(=O)Cc1nc2cnc3ccc(Cl)cc3c2n1[C@@H]1CCO[C@H](C)C1 [Compound 164, 2-{8-chloro-1-[(2R,4R)-2-methyloxan-4-yl]-1H-imidazo[4,5-c]quinolin-2-yl}-N-(2-methoxyethyl)acetamide]",0.369 nM,15.2 nM
"C[C@@H]1C[C@H](n2c(CNC(=O)c3ccccn3)nc3cnc4ccc(C#N)cc4c32)CCO1 [Compound 19, N-({8-cyano-1-[(2R,4R)-2-methyloxan-4-yl]-1H-imidazo[4,5-c]quinolin-2-yl}methyl)pyridine-2-carboxamide]",0.591 nM,22.9 nM
"C[C@@H]1C[C@H](n2c(CC(=O)NC3CCOCC3)nc3cnc4ccc(Cl)cc4c32)CCO1 [Compound 192, 2-{8-chloro-1-[(2R,4R)-2-methyloxan-4-yl]-1H-imidazo[4,5-c]quinolin-2-yl}-N-(oxan-4-yl)acetamide]",0.385 nM,13.3 nM
"COc1cc(C)ncc1NC(=O)Cc1nc2cnc3ccc(C#N)cc3c2n1[C@@H]1CCO[C@H](C)C1 [Compound 226, N-(4-methoxy-6-methyl-3-pyridyl){3-[(2R,4R)-2-methyltetrahydro-2H-pyran-4-yl]-12-cyano-3,5,8-triazatricyclo[7.4.0.0^2,6]trideca-1,4,6,8,10,12-hexaen-4-yl}acetamide]",0.461 nM,5.44 nM
"COCC(C)(C)CNC(=O)Cc1nc2cnc3ccc(C#N)cc3c2n1[C@@H]1CCO[C@H](C)C1 [Compound 266, N-(3-methoxy-2,2-dimethylpropyl){3-[(2R,4R)-2-methyltetrahydro-2H-pyran-4-yl]-12-cyano-3,5,8-triazatricyclo[7.4.0.0^2,6]trideca-1,4,6,8,10,12-hexaen-4-yl}acetamide]",0.521 nM,8 nM
